Reference: ChEMBL document CHEMBL4402613, “Targeting ALK2: An Open Science Approach to Developing Therapeutics for the Treatment of Diffuse Intrinsic Pontine Glioma” (J Med Chem, 2020)
Activity calls are given as the source filed them. The calls are words filed in the database; no cut-off is given here.

Legend:
[1] = molecular target: Activin receptor type-1-like (Homo sapiens) (UniProt P37023); assay: Inhibition of ALK1 (unknown origin) at 1 uM
[2] = molecular target: T1, Non-receptor tyrosine-protein kinase TNK1 (Homo sapiens) (UniProt Q13470); assay: Inhibition of TNK1 (unknown origin) at 1 uM
T1 sequence (whole entry): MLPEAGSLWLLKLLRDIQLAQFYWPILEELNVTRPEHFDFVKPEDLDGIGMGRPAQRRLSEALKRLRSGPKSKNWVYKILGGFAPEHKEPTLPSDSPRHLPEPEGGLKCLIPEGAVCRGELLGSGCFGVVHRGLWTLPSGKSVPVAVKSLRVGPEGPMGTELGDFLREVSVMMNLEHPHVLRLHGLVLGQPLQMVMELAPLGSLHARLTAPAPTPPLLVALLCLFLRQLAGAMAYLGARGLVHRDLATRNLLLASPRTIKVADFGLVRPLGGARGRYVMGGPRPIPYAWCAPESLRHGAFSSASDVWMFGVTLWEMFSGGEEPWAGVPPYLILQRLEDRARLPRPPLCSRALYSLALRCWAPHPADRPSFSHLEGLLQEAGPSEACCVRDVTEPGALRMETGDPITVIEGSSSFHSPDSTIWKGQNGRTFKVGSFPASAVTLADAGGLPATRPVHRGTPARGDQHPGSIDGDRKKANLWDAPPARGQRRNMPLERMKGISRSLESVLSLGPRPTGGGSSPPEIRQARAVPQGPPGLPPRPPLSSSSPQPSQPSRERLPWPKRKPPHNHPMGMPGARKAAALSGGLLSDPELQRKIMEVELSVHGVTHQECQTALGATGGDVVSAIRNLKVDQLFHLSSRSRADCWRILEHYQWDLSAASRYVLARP

Activin receptor type-1 [3] = molecular target: Activin receptor type-1 (Homo sapiens, UniProt Q04771, G328V); assay: Inhibition of ALK2 G328V mutant (unknown origin)
Sequence of Activin receptor type-1 (Homo sapiens, UniProt Q04771, G328V) (Q04771 21-509 G328V limits assumed): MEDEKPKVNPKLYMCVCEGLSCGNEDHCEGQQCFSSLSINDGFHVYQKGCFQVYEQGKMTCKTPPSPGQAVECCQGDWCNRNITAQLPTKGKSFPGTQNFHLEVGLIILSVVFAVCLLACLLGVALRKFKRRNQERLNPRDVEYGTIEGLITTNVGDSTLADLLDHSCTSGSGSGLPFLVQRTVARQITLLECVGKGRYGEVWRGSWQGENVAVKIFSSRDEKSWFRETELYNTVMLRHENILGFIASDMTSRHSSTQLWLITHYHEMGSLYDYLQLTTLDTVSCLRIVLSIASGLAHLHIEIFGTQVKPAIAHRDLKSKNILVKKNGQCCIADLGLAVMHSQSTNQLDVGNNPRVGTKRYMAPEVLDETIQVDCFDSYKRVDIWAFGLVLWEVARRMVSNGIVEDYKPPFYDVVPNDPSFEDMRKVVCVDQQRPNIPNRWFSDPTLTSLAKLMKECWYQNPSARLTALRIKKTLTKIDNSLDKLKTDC

Activin receptor type-1 [4] = molecular target: Activin receptor type-1 (Homo sapiens, UniProt Q04771, R206H); assay: Inhibition of human ALK2 R206H mutant using casein as substrate in presence of 10 uM [gamma33P] ATP by radioactive assay
Sequence of Activin receptor type-1 (Homo sapiens, UniProt Q04771, R206H) (Q04771 21-509 R206H limits assumed): as the sequence (Q04771 21-509 G328V limits assumed) above, with R186H, V308G counted along it

[5] = mouse, in vivo, po, 10 mg/kg, 24 h
Description: Half life in CB17 SCID mouse at 10 mg/kg, po measured up to 24 hrs by LC-MS/MS analysis

[6] = mouse, brain, po, 100 mg/kg, 4 h
Description: Ratio of total drug concentration from brain to plasma in CB17 SCID mouse at 100 mg/kg, po measured after 4 hrs

in vitro = details: human, Caco-2
Description: Apparent permeability across apical to basolateral membrane in human Caco2 cells at 5 uM incubated for 120 mins in orbital shaker by LC-QTOF/MS analysis

Sequence of Activin receptor type-1-like (Homo sapiens) (P37023 whole entry): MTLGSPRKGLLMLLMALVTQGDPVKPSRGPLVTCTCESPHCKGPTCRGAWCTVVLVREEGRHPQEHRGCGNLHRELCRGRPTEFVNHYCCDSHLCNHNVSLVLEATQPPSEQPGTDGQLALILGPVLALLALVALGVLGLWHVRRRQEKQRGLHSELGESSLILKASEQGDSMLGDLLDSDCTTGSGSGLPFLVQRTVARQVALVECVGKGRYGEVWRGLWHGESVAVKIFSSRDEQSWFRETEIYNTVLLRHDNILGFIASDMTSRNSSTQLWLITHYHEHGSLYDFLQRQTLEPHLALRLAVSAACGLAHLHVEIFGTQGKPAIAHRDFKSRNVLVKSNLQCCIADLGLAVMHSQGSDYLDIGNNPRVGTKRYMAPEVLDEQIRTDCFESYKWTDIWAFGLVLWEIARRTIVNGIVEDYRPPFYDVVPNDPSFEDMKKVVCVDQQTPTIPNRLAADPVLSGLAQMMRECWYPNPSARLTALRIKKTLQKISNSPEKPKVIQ

COc1cc(-c2cncc(-c3ccc(N4CCN(C)CC4)cc3)c2C)cc(F)c1C(N)=O
inhibition [1]: Active | inhibition [2]: Active | IC50 (Activin receptor type-1 [3]): 16 nM | IC50 (Activin receptor type-1 [4]): 19 nM | t1/2 [5]: 2.56 h | BPR [6]: 0.178 | Papp A→B at 2 h, 5 µM (in vitro): 5.5 ×10⁻⁶ cm/s
